No end group written: not given here.
Legend:
[1] = tested on: house dust mite driven model of allergic asthma; experiment: prophylactic intranasal versus oral hBD2 in murine house dust mite driven model of allergic asthma (Example 9); format: in vivo, BALB/c mice
Procedure: To determine and assess the efficacy of prophylactic treatment with intranasal (IN) versus oral defensins in a murine house dust mite driven model of allergic asthma.
Treatment regime: Female 7-10 weeks old BALB/c mice were randomly allocated into 5 study groups one day prior to study start and subcutaneously (SC) sensitized to house dust mite (100 μg HDM in 200 μL saline plus Freund's complete adjuvant in 0.9% saline). The mice were treated with hBD2 orally and intranasally respectively at a dose of 1.2 mg/kg/day (0.4 mg/kg TID) starting on day 12 in the morning and continued TID at approximately 6 hours intervals. The last dose was administered on day 14 one hour prior to challenge. The total number of doses were […] hBD2. Mice were then intranasally (IN) challenged with HDM on day 14 (HDM 25 μg in 50 μL of saline) (FIG. 4).
(§1) Airway inflammation: At 48 hours post challenge, bronchoalveolar lavage was performed washing the lungs with 3 volumes of cold PBS (0.4; 0.3 and 0.3 mL, total 1 mL). Total and differential leucocyte cell counts were determined on an automated haematological analyser Sysmex XT-2000iV.
Lung function: Starting 48 hours after HDM challenge, measurements of lung resistance and lung compliance were carried out after methacholine challenge (3.125 MCH1; 6.25 MCH2; 12.5 MCH3 and 25 mg/mL MCH4) by anaesthetized, cannulated mice using DSI's Buxco Finepoint RC system. Data are represented as airway resistance at […] methacholine and as dose responsive curves.
Lung sampling for cytokine analysis: After completion of every BAL, lungs were removed from the thorax, snap frozen in liquid nitrogen and stored frozen at −80 degrees Celsius until analysis of cytokine concentration of TNF-α, IL-4, IL-5, IL-6, IL-9, IL-13 and IL-33 in lung homogenate by ELISA.

[2] = tested on: house dust mite model of allergic asthma; experiment: therapeutic intranasal versus oral hBD2 in murine house dust mite model of allergic asthma (Example 10); format: in vivo, BALB/c mice; details: hBD2, both dosing routes
[3] = tested on: microbiota in diet-induced obese mice; experiment: interventional treatment of dysbiosis with defensins in diet-induced obese mice (Example 8); format: in vivo
Text: Mice and diets. The experiment elucidates the effect of hBD2 and HD5 on the microbiota in diet-induced obese mice. A run-in period of 13 weeks where mice were fed a very HFD (60% energy from fat) preceded the intervention. Only mice meeting the criteria of a minimum of 12 gram weight gain (approximately 50% of initial bodyweight) during the run-in period were included in the final analyses. […] They were exposed to all experimental tests, but excluded from the analyses.
Treatment regimen. Before the intervention all mice were MR scanned. Cages of mice were allocated to experimental groups based on their fat mass. All subsequent measures were paired with data from the same mouse before the intervention. A LFD (low fat diet) reference group was running in parallel. As controls for the intervention 2 additional groups were included: 1 very HFD and 1 LFD. Experimental mice stayed on the very HFD during the intervention (FIG. 3). The mice were on the experimental diet for 10 weeks. They were co-housed throughout the experiment, 4 mice per cage, 3 cages per group. All tests ran over 3 days, 1 cage per group per day.
Tests. Microbial analyses were carried out to study the microbiota of the intestine.
Longitudinal 16S characterization was conducted on 4 paired samples from 60 mice, 240 samples in total. Each mouse was sampled prior to diet change, 1 week post diet change, 4 weeks post diet change and at termination, thus ensuring a thorough characterization of the faecal microbiota as a result of defensin treatment.

[4] = tested on: house dust mite model of allergic asthma; experiment: therapeutic intranasal versus oral hBD2 in murine house dust mite model of allergic asthma (Example 10); format: in vivo, BALB/c mice
Procedure: To determine and assess the efficacy of IN versus oral therapeutic intervention with defensins in a murine house dust mite model of allergic asthma.
Treatment regime: Female 7-10 weeks old BALB/c mice were randomly allocated into 7 study groups one day prior to study start and subcutaneously (SC) sensitized to house dust mite (100 μg HDM in 200 μL saline plus Freund's complete adjuvant in 0.9% saline). Mice were then intranasally (IN) challenged with HDM on day 14 (HDM 25 μg in 50 μL of saline). Dexamethasone was administered orally (1 mg/kg BID; 50 μL phosphate buffered saline (PBS)) on day 14. hBD2 was administered IN or orally (1.7 mg/kg TID IN; 0.4 mg/kg TID IN; 0.4 mg/kg TID orally, 50 μL phosphate buffered saline) on day 14. The initial dose was administered 60 minutes prior to challenge, and the subsequent doses approximately 6 hours apart (FIG. 5).
as §1
Data are represented as airway resistance at […] methacholine and as dose responsive curves.
Lung sampling for cytokine analysis: After completion of every BAL, lungs were removed from the thorax, snap frozen in liquid nitrogen and stored frozen at −80 degrees Celsius until analysis of cytokine concentration of IL-1β, TNF-α, IL-6, IL-10 and IFNγ by ELISA.

[5] = hBD2 both oral and intranasal TID, day 12 to day 14 (total 2.0 mg/kg in 8 administrations), versus HDM challenged vehicle
[6] = intranasally administered, not statistically significantly different from the control
[7] = dexamethasone 1 mg/kg BID oral, hBD2 both IN doses (0.4 mg/kg/day TID and 1.7 mg/kg/day TID)
[8] = hBD2 both oral and intranasal TID on day 14, versus HDM challenged vehicle

Substance: human beta defensin 2 (GIGDPVTCLKSGAICHPVFCPRRYKQIGTCGLPGTKCCKKP; not fully specified (bridges); ends and bridges not checked; listed as Homo sapiens) [hBD2]
- airway resistance [1, 5]: effectively inhibited the increase of airway resistance
- pulmonary compliance [1, 5]: effectively inhibited
- IL-4 in lung tissue homogenates [1, 6]: trend towards lowering
- IL-5 in lung tissue homogenates [1, 6]: trend towards lowering
- IL-6 in lung tissue homogenates [1, 6]: trend towards lowering
- IL-9 in lung tissue homogenates [1, 6]: trend towards lowering
- IL-13 in lung tissue homogenates [1, 6]: trend towards lowering
- TNF-α in lung tissue homogenates [1, 6]: trend towards lowering
- IL-4 concentration in lung tissue homogenates ([1]; oral administration): complete normalization of cytokine concentrations
- IL-6 concentration in lung tissue homogenates ([1]; oral administration): complete normalization of cytokine concentrations
- IL-9 concentration in lung tissue homogenates ([1]; oral administration): complete normalization of cytokine concentrations
- IL-13 concentration in lung tissue homogenates ([1]; oral administration): complete normalization of cytokine concentrations
- L-5 (31c) concentration in lung tissue homogenates ([1]; oral administration): complete normalization of cytokine concentrations
- TNF-α concentration in lung tissue homogenates ([1]; oral administration): complete normalization of cytokine concentrations
- neutrophil counts in BALF ([1]; oral application): significantly inhibited neutrophil counts
- IL-4 level in lung tissue homogenates [2]: significant effects
- IL-5 level in lung tissue homogenates [2]: significant effects
- weight gain ([3]; HFD plus hBD2, first 4 weeks post dietary intervention, versus standard HFD): tended to gain less weight
- weight gain ([3]; HFD plus hBD2, week 4 to end of study period): gained similar weight as the standard HFD group
- abundance of Alloprevotella ([3]; colon): no influence on Alloprevotella abundance
- relative abundance of Bifidobacteriaceae ([3]; colon): dramatically and statistically significant increased
- relative abundance of Bifidobacteriaceae ([3]; small intestine): dramatically and statistically significant increased
- eosinophil counts in BALF [4, 7]: trend towards lowering of eosinophils
- macrophage counts in BALF [4, 7]: significantly inhibited
- neutrophil counts in BALF [4, 7]: significantly inhibited
- total cell counts in BALF [4, 7]: significantly inhibited
- IL-6 level in lung tissue homogenates ([4]; hBD2, both dosing routes): significant effects
- IL-10 level in lung tissue homogenates ([4]; hBD2, both dosing routes): significant effects
- airway resistance [4, 8]: effectively inhibited increase of airway resistance
- pulmonary compliance [4, 8]: effectively inhibited
- TNF-α level in lung tissue homogenates ([4]; intranasally administered hBD2): differed from the control but not significantly
- TNF-α level in lung tissue homogenates ([4]; perorally administered hBD2): significantly reduced TNF-α
